Source: US20260078122A1, “INDAZOLE COMPOUNDS AS PKMYT1 KINASE INHIBITORS” (Hoffmann-La Roche Inc., priority 2023, published 2026)

biological target: T1, recombinant human Myt1 (full length PKMYT1) (Homo sapiens, UniProt Q99640); experiment: ADP-Glo assay (Myt1 kinase activity); conditions: not given
T1 sequence (Q99640 1-499): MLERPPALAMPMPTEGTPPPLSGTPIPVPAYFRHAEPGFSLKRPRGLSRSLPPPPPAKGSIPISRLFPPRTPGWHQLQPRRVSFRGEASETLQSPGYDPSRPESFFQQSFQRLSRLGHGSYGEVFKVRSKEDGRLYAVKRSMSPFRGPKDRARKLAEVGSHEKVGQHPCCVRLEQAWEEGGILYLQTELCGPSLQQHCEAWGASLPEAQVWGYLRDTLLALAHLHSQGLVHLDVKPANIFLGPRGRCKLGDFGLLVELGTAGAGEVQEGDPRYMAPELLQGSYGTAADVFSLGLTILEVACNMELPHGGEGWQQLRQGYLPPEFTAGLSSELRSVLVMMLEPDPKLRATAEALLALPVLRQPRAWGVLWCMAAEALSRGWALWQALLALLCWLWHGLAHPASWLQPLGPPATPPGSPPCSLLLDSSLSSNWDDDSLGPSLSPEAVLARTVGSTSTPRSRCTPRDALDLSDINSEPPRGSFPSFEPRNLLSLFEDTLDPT

Row | Compound | IC50
1 | Cc1nc(C#N)c2c(-c3ccc(F)c4[nH]ncc34)c(N)c(=O)[nH]c2c1C [Example 161, 3-Amino-4-(7-fluoro-1H-indazol-4-yl)-7,8-dimethyl-2-oxo-1H-1,6-naphthyridine-5-carbonitrile] | 15.5 nM
2 | Cc1c(C#N)cnc2c(-c3ccc(F)c4[nH]ncc34)c(N)c(=O)[nH]c12 [Example 118, 7-Amino-8-(7-fluoro-1H-indazol-4-yl)-4-methyl-6-oxo-5H-1,5-naphthyridine-3-carbonitrile] | 17.8 nM
3 | Cc1c(OCC(F)(F)F)cnc2c(-c3ccc(F)c4[nH]ncc34)c(N)c(=O)[nH]c12 [Example 137, 3-Amino-4-(7-fluoro-1H-indazol-4-yl)-8-methyl-7-(2,2,2-trifluoroethoxy)-1H-1,5-naphthyridin-2-one] | 14.1 nM
4 | C=Cc1nc2c(-c3ccc(F)c4[nH]ncc34)c(N)c(=O)[nH]c2c(Cl)c1C [Example 113, 3-Amino-8-chloro-4-(7-fluoro-1H-indazol-4-yl)-7-methyl-6-vinyl-1H-1,5-naphthyridin-2-one] | < 10 nM
5 | Nc1c(-c2ccc(F)c3[nH]ncc23)c2c(OC(F)F)nc(C3CC3)cc2[nH]c1=O [Example 168, 3-Amino-7-cyclopropyl-5-(difluoromethoxy)-4-(7-fluoro-1H-indazol-4-yl)-1H-1,6-naphthyridin-2-one] | 11.2 nM
6 | Cc1cc2[nH]c(=O)c(N)c(-c3ccc(F)c4[nH]ncc34)c2nc1OC(F)F [Example 062, 3-Amino-6-(difluoromethoxy)-4-(7-fluoro-1H-indazol-4-yl)-7-methyl-1H-1,5-naphthyridin-2-one] | 14.6 nM
7 | Cc1cc2[nH]c(=O)c(N)c(-c3ccc(F)c4[nH]ncc34)c2nc1Br [Example 21, 3-Amino-6-bromo-4-(7-fluoro-1H-indazol-4-yl)-7-methyl-1H-1,5-naphthyridin-2-one] | 10.3 nM
8 | Nc1c(-c2ccc(F)c3[nH]ncc23)c2ncc(N3CCOCC3)cc2[nH]c1=O [Example 19, 3-Amino-4-(7-fluoro-1H-indazol-4-yl)-7-morpholino-1H-1,5-naphthyridin-2-one] | 30.3 nM
9 | Cc1cc2[nH]c(=O)c(N)c(-c3ccc(F)c4[nH]ncc34)c2nc1OCC12CC(C1)C2 [Example 063, 3-Amino-6-(1-bicyclo[1.1.1]pentanylmethoxy)-4-(7-fluoro-1H-indazol-4-yl)-7-methyl-1H-1,5-naphthyridin-2-one] | 9.7 nM
10 | COc1c(C)nc(C)c2[nH]c(=O)c(N)c(-c3ccc(F)c4[nH]ncc34)c12 [Example 174, 3-Amino-4-(7-fluoro-1H-indazol-4-yl)-5-methoxy-6,8-dimethyl-1H-1,7-naphthyridin-2-one] | 12.7 nM
11 | COc1nc(C2CC2)cc2[nH]c(=O)c(N)c(-c3ccc(F)c4[nH]ncc34)c12 [Example 169, 3-Amino-7-cyclopropyl-4-(7-fluoro-1H-indazol-4-yl)-5-methoxy-1H-1,6-naphthyridin-2-one] | 13.4 nM
12 | Nc1c(-c2ccc(F)c3[nH]ncc23)c2c(OCc3ccccc3)cnc(Cl)c2[nH]c1=O [Example 180, 3-Amino-5-benzyloxy-8-chloro-4-(7-fluoro-1H-indazol-4-yl)-1H-1,7-naphthyridin-2-one] | 22.6 nM
13 | Cc1ncc(Cl)c2c(-c3ccc(F)c4[nH]ncc34)c(N)c(=O)[nH]c12 [Example 176, 3-Amino-5-chloro-4-(7-fluoro-1H-indazol-4-yl)-8-methyl-1H-1,7-naphthyridin-2-one] | 14.3 nM
14 | Cc1c(Cl)nc2c(-c3ccc(F)c4[nH]ncc34)c(N)c(=O)[nH]c2c1C [Example 49, 3-Amino-6-chloro-4-(7-fluoro-1H-indazol-4-yl)-7,8-dimethyl-1H-1,5-naphthyridin-2-one] | < 10 nM

tested on: not listed separately; experiment: Human microsome stability assay; conditions: 1 μM compound, 0.5 mg/mL liver microsomal protein, 1 mM NADPH, 37° C., 0-30 minutes

Row | Compound | Clearance of Human microsome
15 | Cc1nc(C#N)c2c(-c3ccc(F)c4[nH]ncc34)c(N)c(=O)[nH]c2c1C [Example 161, 3-Amino-4-(7-fluoro-1H-indazol-4-yl)-7,8-dimethyl-2-oxo-1H-1,6-naphthyridine-5-carbonitrile] | 6.15 mL/min/kg
16 | Cn1cncc1-c1cnc2c(-c3ccc(F)c4[nH]ncc34)c(N)c(=O)[nH]c2c1 [Example 008, 3-Amino-4-(7-fluoro-1H-indazol-4-yl)-7-(3-methylimidazol-4-yl)-1H-1,5-naphthyridin-2-one] | 6.15 mL/min/kg
17 | Nc1c(-c2ccc(F)c3[nH]ncc23)c2ncc(F)cc2[nH]c1=O [Example 004, 3-Amino-7-fluoro-4-(7-fluoro-1H-indazol-4-y1)-1H-1,5-naphthyridin-2-one] | 6.15 mL/min/kg
18 | Cc1c(C#N)cnc2c(-c3ccc(F)c4[nH]ncc34)c(N)c(=O)[nH]c12 [Example 118, 7-Amino-8-(7-fluoro-1H-indazol-4-yl)-4-methyl-6-oxo-5H-1,5-naphthyridine-3-carbonitrile] | 6.15 mL/min/kg
19 | COc1cnc2c(-c3ccc(F)c4[nH]ncc34)c(N)c(=O)[nH]c2c1 [Example 006, 3-Amino-4-(7-fluoro-1H-indazol-4-yl)-7-methoxy-1H-1,5-naphthyridin-2-one] | 6.15 mL/min/kg
20 | CC(C)(O)c1cnc2c(-c3ccc(F)c4[nH]ncc34)c(N)c(=O)[nH]c2c1 [Example 020, 3-Amino-4-(7-fluoro-1H-indazol-4-yl)-7-(1-hydroxy-1-methyl-ethyl)-1H-1,5-naphthyridin-2-one] | 6.15 mL/min/kg
21 | COc1c(C)cnc2c(-c3ccc(F)c4[nH]ncc34)c(N)c(=O)[nH]c12 [Example 051, 3-Amino-4-(7-fluoro-1H-indazol-4-yl)-8-methoxy-7-methyl-1H-1,5-naphthyridin-2-one] | 6.15 mL/min/kg
22 | Cc1cc2[nH]c(=O)c(N)c(-c3ccc(F)c4[nH]ncc34)c2nc1C(=O)O [Example 089, 7-Amino-8-(7-fluoro-1H-indazol-4-yl)-3-methyl-6-oxo-5H-1,5-naphthyridine-2-carboxylic acid] | 6.15 mL/min/kg
23 | Nc1c(-c2cccc3[nH]ncc23)c2ncc(C3CC3)cc2[nH]c1=O [Example 034, 3-Amino-7-cyclopropyl-4-(1H-indazol-4-yl)-1H-1,5-naphthyridin-2-one] | 6.15 mL/min/kg
24 | Cc1cnc2c(-c3cccc4[nH]ncc34)c(N)c(=O)[nH]c2c1 [Example 033, 3-Amino-4-(1H-indazol-4-yl)-7-methyl-1H-1,5-naphthyridin-2-one] | 6.22 mL/min/kg
25 | Cc1cnc2c(-c3ccc(F)c4[nH]ncc34)c(N)c(=O)[nH]c2c1Cl [Example 053, 3-Amino-8-chloro-4-(7-fluoro-1H-indazol-4-yl)-7-methyl-1H-1,5-naphthyridin-2-one] | 8.09 mL/min/kg
26 | Nc1c(-c2ccc(F)c3[nH]ncc23)c2ncc(-c3nccs3)cc2[nH]c1=O [Example 016, 3-Amino-4-(7-fluoro-1H-indazol-4-yl)-7-thiazol-2-yl-1H-1,5-naphthyridin-2-one] | 8.06 mL/min/kg
27 | Nc1c(-c2ccc(F)c3[nH]ncc23)c2ncc(-c3ccn[nH]3)cc2[nH]c1=O [Example 009, 3-Amino-4-(7-fluoro-1H-indazol-4-yl)-7-(1H-pyrazol-5-yl)-1H-1,5-naphthyridin-2-one] | 6.15 mL/min/kg
28 | Nc1c(-c2ccc(F)c3[nH]ncc23)c2nccc(Cl)c2[nH]c1=O [Example 050, 3-Amino-8-chloro-4-(7-fluoro-1H-indazol-4-yl)-1H-1,5-naphthyridin-2-one] | 6.15 mL/min/kg
29 | Nc1c(-c2ccc(F)c3[nH]ncc23)c2ncc(N3CCOCC3)cc2[nH]c1=O [Example 019, 3-Amino-4-(7-fluoro-1H-indazol-4-yl)-7-morpholino-1H-1,5-naphthyridin-2-one] | 6.15 mL/min/kg
30 | Cc1cc2[nH]c(=O)c(N)c(-c3ccc(F)c4[nH]ncc34)c2nc1NC(C)C [Example 023, 3-Amino-4-(7-fluoro-1H-indazol-4-yl)-6-(isopropylamino)-7-methyl-1H-1,5-naphthyridin-2-one] | 8.58 mL/min/kg
31 | Nc1c(-c2ccc(F)c3[nH]ncc23)c2ncc(-c3ccc(F)cn3)cc2[nH]c1=O [Example 014, 3-Amino-4-(7-fluoro-1H-indazol-4-yl)-7-(5-fluoro-2-pyridyl)-1H-1,5-naphthyridin-2-one] | 6.15 mL/min/kg
32 | Cc1cc2[nH]c(=O)c(N)c(-c3ccc(F)c4[nH]ncc34)c2nc1N1CCNCC1 [Example 044, 3-Amino-4-(7-fluoro-1H-indazol-4-yl)-7-methyl-6-piperazin-1-yl-1H-1,5-naphthyridin-2-one] | 6.15 mL/min/kg
33 | Cc1nc2c(-c3ccc(F)c4[nH]ncc34)c(N)c(=O)[nH]c2c(C)c1Cl [Example 056, 3-Amino-7-chloro-4-(7-fluoro-1H-indazol-4-yl)-6,8-dimethyl-1H-1,5-naphthyridin-2-one] | 7.47 mL/min/kg
34 | Nc1c(-c2ccc(F)c3[nH]ncc23)c2ncc(-c3ccnnc3)cc2[nH]c1=O [Example 012, 3-Amino-4-(7-fluoro-1H-indazol-4-yl)-7-pyridazin-4-yl-1H-1,5-naphthyridin-2-one] | 6.15 mL/min/kg
35 | Nc1c(-c2cc(F)cc3[nH]ncc23)c2ncc(Cl)cc2[nH]c1=O [Example 036, 3-Amino-7-chloro-4-(6-fluoro-1H-indazol-4-yl)-1H-1,5-naphthyridin-2-one] | 6.15 mL/min/kg
